Assay results: US20240391978A1, “APOLIPOPROTEIN FUSION PROTEINS FOR CELL-SPECIFIC IMMUNE REGULATION” (BIO-TRIP B.V., priority 2021, published 2024)

Legend:
[1] = tested on: primary human monocytes; assay: In vitro inflammation inhibition, LPS-stimulated monocytes; assay type: cell-based
Experimental: (§1) For pharmacological inhibition experiments, the monocytes were pre-incubated for 1 hour with one of the inhibitors described in Table 2 before addition of the training stimulus.
In vitro inflammation inhibition: Monocytes were adhered to a flat-bottom cell culture plate for 1 hour and washed with warm PBS to remove any non-adherent cells and cell debris. […] Following the initial 24-hour stimulation, the supernatants were collected and stored at −20° C. until further analysis with ELISA for IL6 and TNF.
(§2) Cytokine and lactate measurements: TNF, IL6, and IL1Ra were measured in cell culture supernatants using duoset ELISA kits (R&D systems), according to the manufacturer's instructions. For lactate measurements, a fluorometric assay was used. 30 μl sample, medium control, or known standard was added to a black 96-well plate. Then, 30 μl reaction mix (PBS pH 7.4, horse radish peroxidase (0.2 U/ml), lactate oxidase (2 U/ml), Amplex red (100 μM; Fisher scientific)) was added and the reaction was incubated for 20 minutes in the dark at RT. Immediately thereafter, fluorescence was measured at 530/25 nm and 590/35 nm. Gen5 software (v3.03, BioTek) was used in conjunction with Microsoft Excel to calculate cytokine and lactate concentrations in the original samples.

[2] = tested on: primary human monocytes; assay: In vitro model of trained immunity in primary human monocytes; assay type: cell-based
Excerpt: In vitro model of trained immunity in primary human monocytes: To induce trained immunity in primary human monocytes, a previously optimized and published method was used (Dominguez-Andres, J. et al. In vitro induction of trained immunity in adherent human monocytes. STAR Protoc 2, 100365, doi:10.1016/j.xpro.2021.100365 (2021); van Lier, D., Geven, C., Leijte, G. P. & Pickkers, P. Experimental human endotoxemia as a model of systemic inflammation. Biochimie 159, 99-106, doi:10.1016/j.biochi.2018.06.014 (2019)). Briefly: monocytes were adhered to a flat-bottom cell culture plate for 1 hour and washed with warm PBS to remove any non-adherent cells and cell debris. Then, they were stimulated (“trained”) for 24 hours with one of the stimuli detailed in Table 1, or medium only (“untrained” control).
as §1
Following the initial 24-hour stimulation, the cells were washed with warm PBS and warm cell culture medium was added. The monocytes were then allowed to rest and differentiate into macrophages for 5 days. On day 6, the induction of trained immunity was assessed. To this end, the cells were typically re-stimulated with LPS for an additional 24 hours to elicit cytokine production. The supernatants were collected and stored at −20° C. until further analysis, e.g. with ELISA for IL6 and TNF.
as §2

[3] = tested on: Macrophages; assay: Seahorse metabolic analyses of IL4-trained cells; assay type: cell-based, human; details: IL4 training on day 0, measured on day 6
Experimental: Seahorse metabolic analyses: Macrophages were harvested as described above. The cells were resuspended in RPMI+++ and seeded into overnight-calibrated cartridges at 10^5 cells per well. After adhering for 1 hour, the medium was changed to assay medium (Agilent; see below) and the cells were incubated for 1 hour at 37° C. in ambient C02 levels. Oxygen consumption rates (OCR) and extracellular acidification rates (ECAR) were measured as proxies for glycolytic and […] metabolism, using a Seahorse XF Glycolysis Stress Test kit or a Seahorse XF Cell Mito Stress Test kit (both Agilent; measurements performed according to manufacturer's instructions).

[4] = tested on: Macrophages; assay: Phagocytosis assay; assay type: cell-based, human; details: IL4-trained cells vs untrained controls; data not shown
Experimental: Phagocytosis assay: Macrophages were harvested as described above and incubated at 37° C. for 1 hour with FITC-labeled Candida albicans (kindly provided by Dr. Martin Jaeger, Radboudumc) at an MOI of 1:5. The cells were washed 2 times with ice-cold PBA and kept on ice to halt the phagocytosis. The cells were stained for CD45 (table 3) during 30 minutes in the dark at 4° C. Following two washes, trypan blue was added to a final concentration of 0.01% to quench extracellular FITC-Candida. The cells were then acquired on a Cytoflex flow cytometer.
During data analysis, CD45+ events were first selected to remove Candida-only events. Single cells were then gated on as described above and the percentage of Candida-FITC positive macrophages in each sample was calculated.

[5] = tested on: tolerant monocytes from the LPS-challenged volunteers; assay: Experimental human endotoxemia model, ex vivo tolerance reversal; assay type: cell-based; details: ex vivo exposure 24 hours, re-stimulation on day 3
Excerpt: In vivo experimental human endotoxemia model and ex vivo analyses: Eight healthy (as confirmed by medical history, physical examination, and routine laboratory testing) male volunteers provided written informed consent to participate in experimental endotoxemia experiments conducted at the research unit of the intensive care department of the Radboud university medical center. All study procedures were approved by the local ethics committee (CMO Arnhem-Nijmegen, registration numbers NL71293.091.19 and 2019-5730), and were conducted in accordance with the latest version of the declaration of Helsinki.
A continuous endotoxin infusion regimen was employed, as is described in detail elsewhere (van Lier, D., Geven, C., Leijte, G. P. & Pickkers, P. Experimental human endotoxemia as a model of systemic inflammation. Biochimie 159, 99-106, doi:10.1016/j.biochi.2018.06.014 (2019)). […] A 3-lead ECG was recorded continuously throughout the experiment. […] Participants were monitored for 8 hours after the endotoxin loading dose after which they were discharged from the research unit. […]
Cytokine and lactate measurements: TNF, IL6, and IL1Ra were measured in cell culture supernatants using duoset ELISA kits (R&D systems), according to the manufacturer's instructions. […] Immediately thereafter, fluorescence was measured at 530/25 nm and 590/35 nm. […]

[6] = Percoll-enriched monocytes, LPS 24 hours, IL4 25 ng/mL

## IL4: recombinant human interleukin 4
[1]; [6]
  secretion of IL6: potently inhibited
  secretion of IL-1Ra: secreted significantly more IL-1Ra compared to controls
  secretion of TNF: potently inhibited
[1]; otherwise unstimulated monocytes vs medium control, data not shown
  baseline lactate production: slightly, but significantly, lower baseline lactate production
[2]; 24 hours training, 5-day rest, LPS 24 hours
  induction of trained immunity (TNF and IL6 after LPS re-stimulation on day 6): induced a trained immunity phenotype on day 6
[2]; IL4-trained cells, day 6, data not shown
  lactate at baseline of trained cells: produced more lactate at baseline
[2]; IL4 added in the first 24 hours with β-glucan
  effect on β-glucan-induced trained immunity: did not inhibit the training effect
[3]
  FCCP-triggered maximum respiration rate: significantly augmented
  basal glycolysis: trend towards higher basal glycolysis
  baseline respiration rate: significantly augmented
  oligomycin-triggered maximum glycolytic capacity: significant increase
[4]
  phagocytosis of heat-killed Candida albicans: slightly less effective at phagocytosing heat-killed Candida albicans than untrained controls
[5]
  production of IL6 upon re-stimulation with LPS: but not IL6
  production of TNF upon re-stimulation with LPS: significantly improved
